From patent US9765074B2, “Inhibitors of the renal outer medullary potassium channel” (Merck Sharp & Dohme Corp., priority 2013, dated 2017)

Target: T1, hROMK (hKir1.1) (Homo sapiens, UniProt P48048)
T1 construct: expressed in transfected cells
T1 sequence (P48048 1-391): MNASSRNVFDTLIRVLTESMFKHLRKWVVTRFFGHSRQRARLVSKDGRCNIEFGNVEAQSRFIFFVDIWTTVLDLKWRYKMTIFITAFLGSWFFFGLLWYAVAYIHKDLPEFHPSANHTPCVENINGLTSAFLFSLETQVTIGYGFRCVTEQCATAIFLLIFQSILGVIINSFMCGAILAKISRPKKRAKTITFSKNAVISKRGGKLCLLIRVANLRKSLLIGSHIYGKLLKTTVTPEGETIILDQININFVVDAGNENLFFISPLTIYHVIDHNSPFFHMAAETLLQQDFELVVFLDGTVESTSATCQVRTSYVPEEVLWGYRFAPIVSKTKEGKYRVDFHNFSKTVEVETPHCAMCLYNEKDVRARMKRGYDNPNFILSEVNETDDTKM
Experiment: Thallium Flux Assay (ROMK channel functional thallium flux, FLIPR-Tetra)
Type: cell-based
Conditions: HEK293 cells stably expressing hROMK (hKir1.1); 30 min compound incubation
Procedure: The following Thallium Flux Assay was performed on each of the final product compounds in the Examples.
Cell Culture Conditions—HEK293 cells stably expressing hROMK (hKir1.1) were grown at 37° C. in a 10% CO2 humidified incubator in complete growth media: Dulbecco's Modified Eagle Medium supplemented with non-essential amino acids, Penicillin/Streptomycin/Glutamine, G418 and FBS. At >80% confluency, aspirate the media from the flask and rinse with 10 mL Calcium/Magnesium-free PBS. Add 5 mL of 1× trypsin (prepared in Ca/Mg Free PBS) to T-225 flask and return flask to 37° C./CO2 incubator for 2-3 minutes. To dislodge the cell, gently bang the side of the flask with your hand. Triturate the cells completely and then transfer the cells to 25 mL complete media. Centrifuge at 1,500 rpm for 6 min followed by resuspension in complete growth media and determine cell concentration. For typical re-seeding, 4E6 cells/T-225 flask will attain >80% confluency in 4 days. Under ideal growth conditions and appropriate tissue culture practices, this cell line is stable for 40-45 passages. FluxOR Kit Components (Invitrogen F10017) • FluxOR™ Reagent (Component A) • FluxOR™ Assay Buffer (Component B)—10× Concentrate • PowerLoad™ Concentrate (Component C)—100× Concentrate • Probenecid (Component D)—Lyophilized sample is kept at −20° C. Water soluble, 100× after solubilization in 1 mL water. Store at 4° C. • FluxOR™ Chloride-free Buffer (Component E)—5× Concentrate • Potassium sulfate (K2SO4) Concentrate (Component F)—125 mM in water. Store at 4° C. • Thallium sulfate (Tl2SO4) Concentrate (Component G)—50 mM in water. Store at 4° C. • DMSO (dimethyl sulfoxide, Component H)—1 mL (100%) Reagent Preparation: FluxOR Working Solutions • 1000× FluxOR™ Reagent: Reconstitute a vial of component A in 100 μl DMSO; Mix well; Store 10 μl aliquots at −20° C. • 1× FluxOR™ Assay Buffer: Dilute Component B 10-fold with water; Adjust pH to 7.4 with Hepes/NaOH; Filter and store at 4° C. • Probenecid/Assay Buffer: 100 mL of 1× FluxOR™ Assay Buffer; 1 mL of reconstituted component D; Store at 4° C. • Loading Buffer (per microplate): 10 μl 1000× FluxOR™ Reagent; 100 μl component C; 10 mL Probenecid/Assay Buffer • Compound Buffer (per microplate): 20 mL Probenecid/Assay Buffer; 0.3 mM ouabain (10 mM ouabain in water can be stored in amber bottle/aluminum foil at room temperature); Test compound • 1× FluxOR™ Chloride-Free Buffer: Prepare 1× working solution in water. Can be stored at room temperature • Stimulant Buffer (prepared at 5× final concentration in 1× FluxOR™ Chloride-Free Buffer): 7.5 mM Thallium sulfate and 0.75 mM Potassium sulfate (to give a final assay concentration of 3 mM Thallium/0.3 mM Potassium). Store at 4° C. when not in use. If kept sterile, this solution is good for months. Assay Protocol—The ROMK channel functional thallium flux assay is performed in 384 wells, using the FLIPR-Tetra instrument. HEK-hKir1.1 cells are seeded in Poly-D-Lysine microplates and kept in a 37° C.-10% CO2 incubator overnight. On the day of the experiment, the growth media is replaced with the FluxOR™ reagent loading buffer and incubated, protected from light, at ambient temperature (23-25° C.) for 90 min. The loading buffer is replaced with assay buffer±test compound followed by 30 min incubation at ambient temperature, where the Thallium/Potassium stimulant is added to the microplate. Step Protocol • 1. Seed HEK-hKir1.1 cells (50 μl at 20,000 cells/well) in 384-well PDL coated Microplates • 2. Allow cells to adhere overnight in humidified 37° C./10% CO2 incubator • 3. Completely remove cell growth media from microplate and replace with 25 μl loading buffer • 4. Incubate Microplate at room temperature, protected form light, for 90 min • 5. Remove loading buffer and replace with 25 μl 1× Assay Buffer±test compound. • 6. Incubate microplate at room temperature, protected from light, for 30 min • 7. At FLIPR-Tetra 384: Add stimulant (Thallium/Potassium) solution to microplate and monitor fluorescence. […]

SMILES | IC50 [nM]
CC1=C(N2CC(O)C3(CC4CCC(C3)N4C[C@@H](O)c3ccc(-n4cnnn4)nc3)C2=O)COC1=O (single isomer, unassigned) [Example 107] | 110
COC1CN(C2=C(C)C(=O)OC2)C(=O)C12CC1CCC(C2)N1C[C@H](O)c1ccc(-n2cnnn2)nc1 (single isomer, unassigned) [Example 108] | 40
COC1CN(C2=C(C)C(=O)OC2)C(=O)C12CC1CCC(C2)N1C[C@@H](O)c1ccc(-n2cnnn2)nc1 (single isomer, unassigned) [Example 109] | 60
CC1=C(N2C(=O)C3(CCN(C[C@H](O)c4cnc(-n5cnnn5)nc4)CC3)CC2C)COC1=O (single isomer, unassigned) [Example 113] | 80
CC1=C(N2C(=O)C3(CCN(C[C@H](O)c4ccc(-n5cnnn5)nn4)CC3)CC2C)COC1=O (single isomer, unassigned) [Example 123] | 60
CC1=C(N2C(=O)C3(CCN(C[C@@H](O)c4ccc(-n5cnnn5)nn4)CC3)CC2C)COC1=O (single isomer, unassigned) [Example 124] | 40
CC1=C(N2C(=O)C3(CCN(C[C@H](O)c4ccc(-n5cnnn5)nn4)CC3)CC2C)COC1=O (single isomer, unassigned) [Example 125] | 60
CC1=C(N2C(=O)C3(CCN(C[C@@H](O)c4ccc(-n5cnnn5)nn4)CC3)CC2C)COC1=O (single isomer, unassigned) [Example 126] | 90
CC1=C(N2C(=O)C3(CC2C)CC2CCC(C3)N2C[C@H](O)c2ccc(-n3cnnn3)nc2)COC1=O (single isomer, unassigned) [Example 133] | 10
CC1=C(N2C(=O)C3(CC2C)CC2CCC(C3)N2C[C@@H](O)c2ccc(-n3cnnn3)nc2)COC1=O (single isomer, unassigned) [Example 134] | 60
CC1=C(N2C(=O)C3(CC2C)CC2CCC(C3)N2C[C@H](O)c2ccc(-n3cnnn3)nc2)COC1=O (single isomer, unassigned) [Example 135] | 50
CC1=C(N2C(=O)C3(CC2C)CC2CCC(C3)N2C[C@@H](O)c2ccc(-n3cnnn3)nc2)COC1=O (single isomer, unassigned) [Example 136] | 80
CC1=C(N2C(=O)C3(CCN(C[C@H](O)c4ncc(-n5cnnn5)cc4C)CC3)CC2C)COC1=O (single isomer, unassigned) [Example 137] | 80
CC1=C(N2C(=O)C3(CCN(C[C@@H](O)c4ncc(-n5cnnn5)cc4C)CC3)CC2C)COC1=O (single isomer, unassigned) [Example 138] | 80

Further lines, results first:

IC50 [nM] | SMILES
120 | CC1=C(N2CC(O)C3(CCN(C[C@H](O)c4ccc(-n5cnnn5)nc4)CC3)C2=O)COC1=O (single isomer, unassigned) [Example 110]
90 | CC1=C(N2CC(O)C3(CCN(C[C@H](O)c4ccc(-n5cnnn5)nc4)CC3)C2=O)COC1=O (single isomer, unassigned) [Example 111]
60 | COC1CN(C2=C(C)C(=O)OC2)C(=O)C12CCN(C[C@H](O)c1ccc(-n3cnnn3)nc1)CC2 (single isomer, unassigned) [Example 114]
60 | COC1CN(C2=C(C)C(=O)OC2)C(=O)C12CCN(C[C@H](O)c1ccc(-n3cnnn3)nc1)CC2 (single isomer, unassigned) [Example 115]
50 | CC1=C(N2CCC3(CCN(C[C@H](O)c4ccc(-n5cnnn5)nc4C)CC3F)C2=O)COC1=O (single isomer, unassigned) [Example 117]
180 | CC1=C(N2CCC3(CCN(C[C@H](O)c4ccc(-n5cnnn5)nc4C)CC3F)C2=O)COC1=O (single isomer, unassigned) [Example 118]
40 | CC1=C(N2C(=O)C3(CCN(C[C@H](O)c4ccc(-n5cnnn5)cc4C)CC3)CC2C)COC1=O (single isomer, unassigned) [Example 139]
10 | CC1=C(N2C(=O)C3(CCN(C[C@@H](O)c4ccc(-n5cnnn5)cc4C)CC3)CC2C)COC1=O (single isomer, unassigned) [Example 140]
